Laboratory results reported in ChEMBL document CHEMBL1135388, “Design and synthesis of pyrrolidine-5,5-trans-lactams (5-oxohexahydropyrrolo[3,2-b]pyrroles) as novel mechanism-based inhibitors of human cytomegalovirus protease. 2. Potency and chirality” (J Med Chem, 2002).
pIC50: −log10 of the molar value.

Experiments:
[1] = biological target: T1, Capsid scaffolding protein (Human cytomegalovirus (strain AD169) (HHV-5) (Human herpesvirus 5), UniProt P16753); assay: Concentration required for inhibition of human cytomegalo virus (HCMV) protease activity.; design: species or system Human herpesvirus 5 strain AD169
T1 sequence (P16753 whole entry): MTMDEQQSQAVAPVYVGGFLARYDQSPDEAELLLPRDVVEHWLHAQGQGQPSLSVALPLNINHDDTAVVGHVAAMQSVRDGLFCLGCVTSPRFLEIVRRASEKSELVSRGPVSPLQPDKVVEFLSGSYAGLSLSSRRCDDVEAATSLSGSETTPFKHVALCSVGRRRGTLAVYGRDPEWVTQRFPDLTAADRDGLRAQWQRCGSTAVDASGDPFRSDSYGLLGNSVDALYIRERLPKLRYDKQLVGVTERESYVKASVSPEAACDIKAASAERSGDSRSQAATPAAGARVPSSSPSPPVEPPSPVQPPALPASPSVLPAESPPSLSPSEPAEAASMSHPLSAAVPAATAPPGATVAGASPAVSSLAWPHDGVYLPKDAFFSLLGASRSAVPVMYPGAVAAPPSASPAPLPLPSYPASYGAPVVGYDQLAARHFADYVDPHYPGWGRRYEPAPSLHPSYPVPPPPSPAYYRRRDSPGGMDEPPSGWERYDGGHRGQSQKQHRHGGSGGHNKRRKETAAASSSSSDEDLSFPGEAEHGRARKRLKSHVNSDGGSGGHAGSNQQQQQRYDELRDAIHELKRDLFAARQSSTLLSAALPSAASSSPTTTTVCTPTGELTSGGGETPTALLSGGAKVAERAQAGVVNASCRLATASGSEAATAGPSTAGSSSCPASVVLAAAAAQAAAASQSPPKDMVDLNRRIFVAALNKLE

[2] = biological target: T1, Capsid scaffolding protein; assay: Inhibition of Human cytomegalo virus(HCMV) protease activity measured by HPLC assay; design: species or system Human herpesvirus 5 strain AD169
[3] = biological target: Prothrombin (Homo sapiens, UniProt P00734); assay: Concentration required for 50% thrombin inhibition
[4] = biological target: Acetylcholinesterase (Homo sapiens, UniProt P22303); assay: Concentration required for 50% Acetylcholinesterase inhibition
[5] = Concentration required for 50% elastase inhibition

Chain of Acetylcholinesterase (P22303 whole entry): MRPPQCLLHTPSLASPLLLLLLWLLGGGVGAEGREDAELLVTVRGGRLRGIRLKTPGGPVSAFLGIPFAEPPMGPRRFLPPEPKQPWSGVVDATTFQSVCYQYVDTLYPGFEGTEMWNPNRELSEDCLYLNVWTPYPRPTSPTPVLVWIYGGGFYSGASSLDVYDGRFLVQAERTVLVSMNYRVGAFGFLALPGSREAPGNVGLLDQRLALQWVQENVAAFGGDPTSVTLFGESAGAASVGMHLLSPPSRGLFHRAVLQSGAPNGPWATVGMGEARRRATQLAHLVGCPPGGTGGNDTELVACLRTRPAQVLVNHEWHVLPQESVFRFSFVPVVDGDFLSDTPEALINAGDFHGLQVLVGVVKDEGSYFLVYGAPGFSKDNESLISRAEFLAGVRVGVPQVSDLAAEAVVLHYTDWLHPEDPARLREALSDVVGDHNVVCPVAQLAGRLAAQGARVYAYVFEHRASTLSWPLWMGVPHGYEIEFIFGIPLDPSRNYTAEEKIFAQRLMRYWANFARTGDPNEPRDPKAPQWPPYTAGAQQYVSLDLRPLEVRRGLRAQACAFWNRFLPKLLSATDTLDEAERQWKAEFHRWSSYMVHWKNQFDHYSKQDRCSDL

SMILES | pIC50 [1] | also measured
C[C@@H]1C(=O)N(C(=O)C2[C@@H](C)[C@H]2C)[C@H]2CCN(C(=O)OCc3ccccc3)C12 (some centres undefined) | 4.14 | 
C[C@@H]1C(=O)N(C(=O)C2[C@@H](C)[C@@H]2C)[C@H]2CCN(C(=O)OCc3ccccc3)C12 (some centres undefined) | < 4.00 | 
C[C@@H]1C(=O)N(C(=O)C2Cc3ccccc32)[C@H]2CCN(C(=O)OCc3ccccc3)C12 (some centres undefined) | 4.94 | 
CC1CC1C(=O)N1C(=O)[C@@H](C)C2[C@@H]1CCN2C(=O)OCc1ccccc1 (some centres undefined) | 5.00 | 
CC(=O)N1C(=O)[C@@H](C)[C@@H]2[C@@H]1CCN2C(=O)[C@@H]1CCCN1C(=O)c1ccccc1 | 4.30 | 
CC(=O)N1C(=O)[C@@H](C)C2[C@@H]1CCN2C(=O)C(=O)c1cccn1C (some centres undefined) |  | pIC50 [2]: 5.30
CC(C)C(=O)N1C(=O)[C@@H](C)C2[C@@H]1CCN2C(=O)OCc1ccccc1 (some centres undefined) |  | pIC50 [2]: 3.90
C[C@@H]1C(=O)N(C(=O)C2CC2)[C@H]2CCN(C(=O)[C@@H]3CCCN3S(=O)(=O)Cc3cccc(N(C)C)c3)[C@H]12 | 5.66 | 
CC(=O)N1C(=O)[C@@H](C)C2[C@@H]1CCN2CC(=O)Cc1ccccc1 (some centres undefined) | 4.10 | 
C[C@H]1C(=O)N(C(=O)C2CC2)[C@@H]2CCN(C(=O)CN(C)S(=O)(=O)c3cccc4c(N(C)C)cccc34)[C@H]21 | < 4.00 | 
C[C@@H]1C(=O)N(C(=O)C2CC2)[C@H]2CCN(C(=O)[C@@H]3CCCN3S(=O)(=O)c3cccc4c(N(C)C)cccc34)[C@H]12 |  | pIC50 [3]: < 3.70; pIC50 [4]: < 4.00; pIC50 [5]: < 5.00
C[C@@H]1C(=O)N(C(=O)C2CC2)[C@H]2CCN(C(=O)[C@@H]3CCCN3S(=O)(=O)c3cccc(C(=O)N(C)C)c3)[C@H]12 | 5.85 | 
C[C@@H]1C(=O)N(CC(O)COc2ccccc2)[C@H]2CCN(C(=O)OCc3ccccc3)C12 (some centres undefined) | < 3.30 | 
CC(=O)N1C(=O)[C@H](C)[C@H]2[C@H]1CCN2C(=O)[C@@H]1CCCN1S(=O)(=O)c1ccc(C)cc1 | 3.80 | 
CC(=O)N1C(=O)[C@@H](C)[C@@H]2[C@@H]1CCN2C(=O)[C@@H]1CCCN1S(=O)(=O)c1cccc2c(N(C)C)cccc12 | 6.27 | pIC50 [3]: < 3.70; pIC50 [4]: < 4.00; pIC50 [5]: < 5.00
CC(C)Oc1cccc(S(=O)(=O)N2CCC[C@H]2C(=O)N2CC[C@H]3[C@H]2[C@H](C)C(=O)N3C(=O)C2CC2)c1 | 4.19 | 
CC(NS(=O)(=O)c1cccc2c(N(C)C)cccc12)C(=O)N1CC[C@@H]2[C@@H]1[C@@H](C)C(=O)N2C(=O)C1CC1 (some centres undefined) | 5.15 | 

SMILES | pIC50 [1] | also measured
Cc1ccc(S(=O)(=O)N2CCCC2C(=O)N2CC[C@H]3C2[C@H](C)C(=O)N3C=O)cc1 (some centres undefined) | 4.85 | 
C[C@@H]1C(=O)N(C(=O)C(C)(C)C)[C@H]2CCN(C(=O)OCc3ccccc3)C12 (some centres undefined) |  | pIC50 [2]: < 3.30
CC(=O)N1C(=O)[C@H](C)[C@H]2[C@H]1CCN2C(=O)[C@@H]1CCCN1S(=O)(=O)c1ccc([N+](=O)[O-])cc1 | 4.96 | 
CC(=O)N1C(=O)[C@@H](C)C2[C@@H]1CCN2S(=O)(=O)CCc1ccccc1 (some centres undefined) | 4.35 | 
C[C@@H]1C(=O)N(C(=O)C2CC2)[C@H]2CCN(C(=O)OCc3ccccc3)C12 (some centres undefined) | 5.05 | 
COc1ccc(C(=O)N2C(=O)[C@@H](C)C3[C@@H]2CCN3C(=O)OCc2ccccc2)cc1 (some centres undefined) | < 3.30 | 
CC(=O)OCC(=O)N1C(=O)C(C)C2C1CCN2C(=O)OCc1ccccc1 (centres undefined) |  | pIC50 [2]: 4.89
CC(=O)N1C(=O)[C@H](C)[C@H]2[C@H]1CCN2C(=O)[C@@H]1CCCN1C(=O)c1ccccc1 | < 3.30 | 
CC(=O)N1C(=O)[C@H](C)[C@H]2[C@H]1CCN2C(=O)[C@@H]1CCCN1S(=O)(=O)c1cccc2c(N(C)C)cccc12 | < 3.30 | 
C[C@H]1C(=O)N(C(=O)C2CC2)[C@@H]2CCN(C(=O)C3CCCCN3S(=O)(=O)c3cccc4c(N(C)C)cccc34)[C@H]21 (some centres undefined) | 4.89 | 
C[C@@H]1C(=O)N(C=O)[C@H]2CCN(C(=O)OCc3ccccc3)C12 (some centres undefined) | 3.40 | 
CC(=O)N1C(=O)[C@@H](C)C2[C@@H]1CCN2C(=O)COc1ccccc1 (some centres undefined) | 4.20 | 
C[C@@H]1C(=O)N(C(=O)C2C(C)(C)C2(C)C)[C@H]2CCN(C(=O)OCc3ccccc3)C12 (some centres undefined) | < 3.30 | 
CC(=O)OCC(=O)N1C(=O)[C@@H](C)C2[C@@H]1CCN2C(=O)OCc1ccccc1 (some centres undefined) |  | pIC50 [2]: 5.22
CC(=O)N1C(=O)[C@@H](C)C2[C@@H]1CCN2C(=O)Cc1c(C)[nH]c2ccc(F)cc12 (some centres undefined) |  | pIC50 [2]: 5.22
C[C@@H]1C(=O)N(C(=O)C2CCC2)[C@H]2CCN(C(=O)OCc3ccccc3)C12 (some centres undefined) |  | pIC50 [2]: 4.49
C[C@@H]1C(=O)N(C(=O)CCO)[C@H]2CCN(C(=O)OCc3ccccc3)C12 (some centres undefined) |  | pIC50 [2]: 3.88
